Assays:
[1] = test system: L1210 murine leukemia cells; assay: Activity against L1210 murine leukemia cells (IC50); type: cell-based
Description: A molecule (22c) was designed based on the conformational similarities with (6R)-isodolastatin 10 (See FIGS. 1a and 1b). The molecule was then synthesized by the procedure outlined in this application.

M5076 Ovary Sarcoma = assay: Murine in vivo system: M5076 Ovary Sarcoma, T/C
Description: (§1) The synthesis of potentially useful peptides presents one of the most essential and promising approaches to new types of anticancer and immunosuppressant drugs. The Dolastatins, an unprecedented series of linear and cyclic antineoplastic and/or cytostatic peptides isolated from Indian Ocean sea hare Dolabella auricularia represent excellent leads for synthetic modification. The very productive sea hare Dolabella auricularia has produced a number of structurally distinct peptides with excellent antineoplastic activity. Presently dolastatin 10, a linear pentapeptide represents the most important member and is a potentially useful antineoplastic agent. […] Recently the total synthesis and absolute configuration of this structurally unique and biologically active peptide was reported.
(§2) Experimental Anticancer Activity of Dolastatin 10 in Murine in vivo Systems, T/C (μg/kg)

[2] = test system: OVCAR-3 Human Ovary Xenograft; assay: OVCAR-3 Human Ovary Xenograft Nude Mouse, T/C; type: in vivo; settings: OVCAR-3 xenograft, dose 40 μg/kg
Description: as §1, §2

B16 Melanoma = assay: Murine in vivo system: B16 Melanoma, T/C
Description: as §1, §2

[3] = test system: MX-1 Human Mammary Xenograft; assay: MX-1 Human Mammary Xenograft (Tumor Regression), T/C; type: in vivo, Murine
Description: as §1, §2

Human Mammary Xenograft = Human Mammary Xenograft Nude Mouse, T/C; type: in vivo
Description: as §1, §2

[4] = test system: LOX Human Melanoma Xenograft; assay: LOX Human Melanoma Xenograft to Nude Mouse, T/C; type: in vivo
Description: as §2

[5] = test system: L1210 Lymphocytic Leukemia; assay: Murine in vivo system: L1210 Lymphocytic Leukemia, T/C
Description: as §1, §2

[6] = test system: P388 Lymphocytic Leukemia; assay: Murine in vivo system: P388 Lymphocytic Leukemia, T/C
Description: as §1, §2

[7] = test system: PS-388 Leukemia cell line; assay: PS-388 mouse leukemia cell line growth inhibition; type: cell-based; settings: Mouse Leukemia PS-388, 48 hours
Description: (§3) The only difference is historical usage.
(§4) Percent Growths are calculated for each dose.
(§5) This is the "baseline count" or "Tzero reading".

OVCAR-3 = assay: Human cancer cell line growth inhibition, Ovarian OVCAR-3; type: cell-based; settings: Ovarian OVCAR-3, 48 hours
Description: (§6) Cancer Inst. […] Cancer Inst. Reports, Vol 81, No. 14, Page 1088, Jul.
as §3, §4, §5

SF-2X5 = assay: Human cancer cell line growth inhibition, CNS SF-2X5; type: cell-based; settings: CNS SF-2X5, 48 hours
Description: as §6, §3, §4, §5

A4X8 = assay: Human cancer cell line growth inhibition, Renal A4X8; type: cell-based; settings: Renal A4X8, 48 hours
Description: as §6, §3, §4, §5

NCI-H460 = assay: Human cancer cell line growth inhibition, Lung-NSC NCI-H460; type: cell-based; settings: Lung-NSC NCI-H460, 48 hours
Description: as §6, §3, §4, §5

SK-MEL-5 = assay: Human cancer cell line growth inhibition, Melanoma SK-MEL-5; type: cell-based; settings: Melanoma SK-MEL-5, 48 hours
Description: as §6, §3, §4, §5

KM20L2 = assay: Human cancer cell line growth inhibition, Colon KM20L2; type: cell-based; settings: Colon KM20L2, 48 hours
Description: as §6, §3, §4, §5

[8] = LOX in separate experiments, dose 9.0 μg/kg
[9] = LOX in separate experiments, dose 26 μg/kg
[10] = LOX in separate experiments, dose 43 μg/kg

CC[C@H](C)[C@@H]([C@@H](CC(=O)N1CCC[C@H]1CCC(=O)N[C@@H](CCSC)C(=O)OC)OC)N(C)C(=O)[C@@H](NC(=O)[C@H](C(C)C)N(C)C)C(C)C [22c, Dov-val-dil-desmethoxy-desmethyl-dolaproine-methionine methyl ester]
IC50 [1]: 4 µM

CC[C@H](C)[C@@H]([C@@H](CC(=O)N1CCC[C@H]1[C@H](OC)[C@@H](C)C(=O)N[C@@H](Cc1ccccc1)c1nccs1)OC)N(C)C(=O)[C@@H](NC(=O)[C@H](C(C)C)N(C)C)C(C)C [Dolastatin 10]
T/C (M5076 Ovary Sarcoma; M5076, dose 3.25 μg/kg): 151 | T/C (M5076 Ovary Sarcoma; M5076, dose 6.5 μg/kg): 142 | T/C (M5076 Ovary Sarcoma; M5076, dose 13 μg/kg): 166 | T/C (M5076 Ovary Sarcoma; M5076, dose 26 μg/kg): toxic | T/C [2]: 300 | T/C (B16 Melanoma; B16, dose 1.44 μg/kg): 142 | T/C (B16 Melanoma; B16, dose 3.4 μg/kg): 171 | T/C (B16 Melanoma; B16, dose 4.0 μg/kg): 205 | T/C (B16 Melanoma; B16, dose 6.67 μg/kg): 182 | T/C (B16 Melanoma; B16, dose 11.11 μg/kg): 238 | cures (B16 Melanoma; B16, dose 11.11 μg/kg): 40% | T/C (Tumor Regression) ([3]; MX-1, dose 6.25 μg/kg): 69 | T/C (Tumor Regression) ([3]; MX-1, dose 13 μg/kg): 61 | T/C (Tumor Regression) ([3]; MX-1, dose 26 μg/kg): 50 | T/C (Tumor Regression) ([3]; MX-1, dose 52 μg/kg): 14 | T/C (Human Mammary Xenograft; dose 6.25 μg/kg): 178 | T/C (Human Mammary Xenograft; dose 13 μg/kg): 137 | T/C (Human Mammary Xenograft; dose 26 μg/kg): Toxic | T/C [4, 8]: 138 | cures [4, 8]: 17% | T/C ([4]; LOX in separate experiments, dose 15 μg/kg): 192 | T/C [4, 9]: 181 | cures [4, 9]: 33% | T/C [4, 10]: 340 | cures [4, 10]: 50% | T/C ([4]; LOX, dose 3.25 μg/kg): 170 | cures ([4]; LOX, dose 3.25 μg/kg): 17% | T/C ([4]; LOX, dose 6.5 μg/kg): 206 | cures ([4]; LOX, dose 6.5 μg/kg): 33% | T/C ([4]; LOX, dose 13 μg/kg): 301 | cures ([4]; LOX, dose 13 μg/kg): 50% | T/C ([4]; LOX, dose 26 μg/kg): 301 | cures ([4]; LOX, dose 26 μg/kg): 67% | T/C ([4]; LOX, dose 52 μg/kg): toxic | T/C ([5]; L1210, dose 1.63 μg/kg): 120 | T/C ([5]; L1210, dose 3.25 μg/kg): 139 | T/C ([5]; L1210, dose 6.5 μg/kg): 135 | T/C ([5]; L1210, dose 13 μg/kg): 152 | T/C ([6]; P388, dose 1.63 μg/kg): 137 | T/C ([6]; P388, dose 3.25 μg/kg): 146 | cures ([6]; P388, dose 3.25 μg/kg): 17% | T/C ([6]; P388, dose 6.5 μg/kg): 155 | cures ([6]; P388, dose 6.5 μg/kg): 17% | T/C ([6]; P388, dose 13.0 μg/kg): toxic

Dov-Val-Dil-Dap methyl ester [compound 21]
ED-50 [7]: 0.0297 µg/mL | GI-50 (OVCAR-3): 0.0035 µg/mL | LC-50 (OVCAR-3): > 1 µg/mL | TGI (OVCAR-3): 0.026 µg/mL | GI-50 (SF-2X5): 0.0038 µg/mL | LC-50 (SF-2X5): > 1 µg/mL | TGI (SF-2X5): > 0.035 µg/mL | GI-50 (A4X8): 0.02 µg/mL | LC-50 (A4X8): > 1 µg/mL | TGI (A4X8): > 1 µg/mL | GI-50 (NCI-H460): 0.0022 µg/mL | LC-50 (NCI-H460): > 1 µg/mL | TGI (NCI-H460): 0.021 µg/mL | GI-50 (SK-MEL-5): 0.0087 µg/mL | LC-50 (SK-MEL-5): > 1 µg/mL | TGI (SK-MEL-5): > 1 µg/mL | GI-50 (KM20L2): 0.021 µg/mL | LC-50 (KM20L2): > 1 µg/mL | TGI (KM20L2): 0.23 µg/mL

Z-Val-Dil-Dap-Phenethylamine [compound 18]
ED-50 [7]: > 1 µg/mL | GI-50 (OVCAR-3): 0.051 µg/mL | LC-50 (OVCAR-3): 0.99 µg/mL | TGI (OVCAR-3): 0.24 µg/mL | GI-50 (SF-2X5): 0.14 µg/mL | LC-50 (SF-2X5): > 1 µg/mL | TGI (SF-2X5): 0.43 µg/mL | GI-50 (A4X8): 0.16 µg/mL | LC-50 (A4X8): > 1 µg/mL | TGI (A4X8): 0.52 µg/mL | GI-50 (NCI-H460): 0.21 µg/mL | LC-50 (NCI-H460): > 1 µg/mL | TGI (NCI-H460): 0.66 µg/mL | GI-50 (SK-MEL-5): 0.29 µg/mL | LC-50 (SK-MEL-5): > 1 µg/mL | TGI (SK-MEL-5): > 1 µg/mL | GI-50 (KM20L2): 0.24 µg/mL | LC-50 (KM20L2): > 1 µg/mL | TGI (KM20L2): 0.67 µg/mL
